Assay results reported in ChEMBL document CHEMBL5375952, “Discovery of Novel 8-Hydroxyquinoline Derivatives with Potent In Vitro and In Vivo Antifungal Activity” (J Med Chem, 2023).

Experiments:
[1] = Toxicity in C57BL/6 mouse infected with Candida albicans SC5314 assessed as animal death at 2 mg/kg, ip measured after 7 days; type: organism-based; settings: in vivo, 168 h, time 7 day
[2] = system: Candida albicans; assay: Synergistic antifungal activity against FLC-resistant Candida albicans 10 assessed as MIC of FLC incubated for 48 hrs by broth microdilution method; type: functional
[3] = system: Candida albicans; assay: Synergistic antifungal activity against FLC-resistant Candida albicans 11 assessed as MIC of FLC incubated for 48 hrs by broth microdilution method; type: functional
[4] = system: Candida albicans; assay: Synergistic antifungal activity against FLC-resistant Candida albicans 17 assessed as MIC of FLC incubated for 48 hrs by broth microdilution method; type: functional
[5] = system: Candida albicans; assay: Synergistic antifungal activity against FLC-resistant Candida albicans 249 assessed as MIC of FLC incubated for 48 hrs by broth microdilution method; type: functional
[6] = system: Candida albicans; assay: Synergistic antifungal activity against FLC-resistant Candida albicans 305 assessed as MIC of FLC incubated for 48 hrs by broth microdilution method; type: functional
[7] = system: Candida albicans; assay: Synergistic antifungal activity against FLC-resistant Candida albicans 385 assessed as MIC of FLC incubated for 48 hrs by broth microdilution method; type: functional
[8] = system: Candida albicans; assay: Synergistic antifungal activity against FLC-resistant Candida albicans 538 assessed as MIC of FLC incubated for 48 hrs by broth microdilution method; type: functional
[9] = system: Candida albicans; assay: Synergistic antifungal activity against FLC-resistant Candida albicans 953 assessed as MIC of FLC incubated for 48 hrs by broth microdilution method; type: functional
[10] = system: Candida albicans; assay: Synergistic antifungal activity against FLC-resistant Candida albicans 5740 assessed as MIC of FLC incubated for 48 hrs by broth microdilution method; type: functional
[11] = system: Candida albicans; assay: Synergistic antifungal activity against FLC-resistant Candida albicans 64548 assessed as MIC of FLC incubated for 48 hrs by broth microdilution method; type: functional
[12] = system: Candida albicans; assay: Synergistic antifungal activity against FLC-resistant Candida albicans 512681 assessed as MIC of FLC incubated for 48 hrs by broth microdilution method; type: functional
[13] = system: Candida albicans; assay: Synergistic antifungal activity against FLC-resistant Candida albicans 605141 assessed as MIC of FLC incubated for 48 hrs by broth microdilution method; type: functional
[14] = system: Candida albicans; assay: Synergistic antifungal activity against FLC-resistant Candida albicans 710506 assessed as MIC of FLC incubated for 48 hrs by broth microdilution method; type: functional
[15] = system: Candida albicans; assay: Synergistic antifungal activity against FLC-resistant Candida albicans 8 assessed as fungal growth inhibition incubated for 48 hrs in presence of FLC by broth microdilution method; type: functional
[16] = system: Candida albicans; assay: Synergistic antifungal activity against FLC-resistant Candida albicans 10 assessed as fungal growth inhibition incubated for 48 hrs in presence of FLC by broth microdilution method; type: functional
[17] = system: Candida albicans; assay: Synergistic antifungal activity against FLC-resistant Candida albicans 241 assessed as fungal growth inhibition incubated for 48 hrs in presence of FLC by broth microdilution method; type: functional
[18] = system: Candida albicans; assay: Synergistic antifungal activity against FLC-resistant Candida albicans 385 assessed as fungal growth inhibition incubated for 48 hrs in presence of FLC by broth microdilution method; type: functional
[19] = system: Candida albicans; assay: Synergistic antifungal activity against FLC-resistant Candida albicans 538 assessed as fungal growth inhibition incubated for 48 hrs in presence of FLC by broth microdilution method; type: functional
[20] = system: Candida albicans; assay: Synergistic antifungal activity against FLC-resistant Candida albicans 646 assessed as fungal growth inhibition incubated for 48 hrs in presence of FLC by broth microdilution method; type: functional
[21] = system: Candida albicans; assay: Synergistic antifungal activity against FLC-resistant Candida albicans 953 assessed as fungal growth inhibition incubated for 48 hrs in presence of FLC by broth microdilution method; type: functional
[22] = system: Candida albicans; assay: Synergistic antifungal activity against FLC-resistant Candida albicans 1221 assessed as fungal growth inhibition incubated for 48 hrs in presence of FLC by broth microdilution method; type: functional
[23] = system: Candida albicans; assay: Synergistic antifungal activity against FLC-resistant Candida albicans 710506 assessed as fungal growth inhibition incubated for 48 hrs in presence of FLC by broth microdilution method; type: functional
[24] = system: Candida albicans; assay: Synergistic antifungal activity against FLC-resistant Candida albicans 710513 assessed as fungal growth inhibition incubated for 48 hrs in presence of FLC by broth microdilution method; type: functional
[25] = system: Candida albicans; assay: Synergistic antifungal activity against FLC-resistant Candida albicans 710554 assessed as fungal growth inhibition incubated for 48 hrs in presence of FLC by broth microdilution method; type: functional
[26] = system: Candida albicans; assay: Synergistic antifungal activity against FLC-resistant Candida albicans 304103 assessed as fractional inhibitory concentration index incubated for 48 hrs in presence of FLC by broth microdilution method; type: functional
[27] = system: Candida albicans; assay: Synergistic antifungal activity against FLC-resistant Candida albicans 10 assessed as fractional inhibitory concentration index incubated for 48 hrs in presence of FLC by broth microdilution method; type: functional
[28] = system: Candida albicans; assay: Synergistic antifungal activity against FLC-resistant Candida albicans 241 assessed as fractional inhibitory concentration index incubated for 48 hrs in presence of FLC by broth microdilution method; type: functional
[29] = system: Candida albicans; assay: Synergistic antifungal activity against FLC-resistant Candida albicans 385 assessed as fractional inhibitory concentration index incubated for 48 hrs in presence of FLC by broth microdilution method; type: functional
[30] = system: Candida albicans; assay: Synergistic antifungal activity against FLC-resistant Candida albicans 819 assessed as fractional inhibitory concentration index incubated for 48 hrs in presence of FLC by broth microdilution method; type: functional
[31] = system: Candida albicans; assay: Synergistic antifungal activity against FLC-resistant Candida albicans 710513 assessed as fractional inhibitory concentration index incubated for 48 hrs in presence of FLC by broth microdilution method; type: functional
[32] = system: Candida albicans; assay: Inhibition of biofilm formation of Candida albicans SC5314 at 4 ug/ml incubated for 24 hrs by XTT assay relative to control; type: functional
[33] = system: Candida albicans; assay: Inhibition of biofilm formation of Candida albicans SC5314 at 16 ug/ml incubated for 24 hrs by XTT assay relative to control; type: functional
[34] = system: Candida albicans; assay: Synergistic inhibition of biofilm formation of Candida albicans SC5314 at 0.5 ug/ml incubated for 24 hrs in presence of 1 ug/ml of FLC by XTT assay relative to control; type: functional
[35] = Toxicity in C57BL/6 mouse infected with Candida albicans SC5314 assessed as animal survival at 2 mg/kg, ip measured after 20 days in presence of FLC relative to control; type: organism-based; settings: in vivo, 480 h, time 20 day
[36] = C0 in Sprague-Dawley rat at 2 mg/kg, iv by LC-MS/MS analysis; type: ADME, organism-based; settings: in vivo
[37] = Clearance in Sprague-Dawley rat at 2 mg/kg, iv by LC-MS/MS analysis; type: ADME, organism-based; settings: in vivo
[38] = MRT (0 to t) in Sprague-Dawley rat at 2 mg/kg, iv by LC-MS/MS analysis; type: ADME, organism-based; settings: in vivo
[39] = Volume of distribution at steady state in Sprague-Dawley rat at 2 mg/kg, iv by LC-MS/MS analysis; type: ADME, organism-based; settings: in vivo, read-out: Vdss
[40] = Half life in Sprague-Dawley rat at 5 mg/kg, po by LC-MS/MS analysis; type: ADME, organism-based; settings: in vivo
[41] = molecular target: Voltage-gated inwardly rectifying potassium channel KCNH2 (Homo sapiens, UniProt Q12809); assay: Inhibition of hERG measured for 120 secs by electrophysiological method; type: toxicity; settings: 2 min, time 120 sec
Voltage-gated inwardly rectifying potassium channel KCNH2, sequence (Q12809 whole entry): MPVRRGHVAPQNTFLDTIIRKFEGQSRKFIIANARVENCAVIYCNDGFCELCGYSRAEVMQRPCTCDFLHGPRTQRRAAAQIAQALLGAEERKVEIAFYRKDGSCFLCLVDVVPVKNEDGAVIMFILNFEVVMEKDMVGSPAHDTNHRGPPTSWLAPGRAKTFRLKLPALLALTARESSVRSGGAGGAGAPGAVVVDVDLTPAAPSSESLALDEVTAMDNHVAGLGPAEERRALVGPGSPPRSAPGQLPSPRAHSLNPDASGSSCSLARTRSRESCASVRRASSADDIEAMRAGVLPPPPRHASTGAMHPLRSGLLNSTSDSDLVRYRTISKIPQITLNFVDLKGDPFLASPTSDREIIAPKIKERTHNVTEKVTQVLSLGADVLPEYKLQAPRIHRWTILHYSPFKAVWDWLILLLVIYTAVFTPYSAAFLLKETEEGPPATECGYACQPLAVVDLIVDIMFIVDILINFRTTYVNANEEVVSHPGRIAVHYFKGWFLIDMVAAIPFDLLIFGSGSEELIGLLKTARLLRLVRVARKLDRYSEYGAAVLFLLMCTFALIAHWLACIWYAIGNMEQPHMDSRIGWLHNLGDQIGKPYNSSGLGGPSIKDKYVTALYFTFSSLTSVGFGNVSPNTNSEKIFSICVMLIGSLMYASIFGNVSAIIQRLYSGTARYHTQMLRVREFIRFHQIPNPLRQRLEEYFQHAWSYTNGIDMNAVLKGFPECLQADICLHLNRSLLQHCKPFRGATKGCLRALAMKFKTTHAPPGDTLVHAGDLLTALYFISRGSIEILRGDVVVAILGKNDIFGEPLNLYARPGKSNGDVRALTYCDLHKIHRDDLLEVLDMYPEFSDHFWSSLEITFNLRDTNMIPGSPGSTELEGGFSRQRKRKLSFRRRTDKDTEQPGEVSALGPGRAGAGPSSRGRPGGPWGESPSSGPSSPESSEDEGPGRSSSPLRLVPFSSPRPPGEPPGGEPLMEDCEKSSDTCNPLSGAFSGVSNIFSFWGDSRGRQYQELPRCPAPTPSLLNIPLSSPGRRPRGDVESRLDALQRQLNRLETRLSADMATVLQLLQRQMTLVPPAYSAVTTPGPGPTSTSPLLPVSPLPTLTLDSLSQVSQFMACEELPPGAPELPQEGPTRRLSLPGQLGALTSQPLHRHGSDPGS

## Oc1c(I)cc(Cl)c2cccnc12 [CLIOQUINOL]
[1]
  Activity: Non-Toxic

## CCN(CC)c1ccc(C(NC(=O)C(C)C)c2ccc3cccnc3c2O)cc1 (stereo unspecified)
[2]
  MIC: 0.25 µg/mL
[3]
  MIC: 0.25 µg/mL
[4]
  MIC: 0.125 µg/mL
[5]
  MIC: 0.125 µg/mL
[6]
  MIC: 1 µg/mL
[7]
  MIC: 2 µg/mL
[8]
  MIC: 2 µg/mL
[9]
  MIC: 0.125 µg/mL
[10]
  MIC: 2 µg/mL
[11]
  MIC: 0.063 µg/mL
[12]
  MIC: 0.25 µg/mL
[13]
  MIC: 0.125 µg/mL
[14]
  MIC: 0.5 µg/mL
[15]
  MIC: 0.031 µg/mL
[16]
  MIC: 0.008 µg/mL
[17]
  MIC: 0.016 µg/mL
[18]
  MIC: 0.008 µg/mL
[19]
  MIC: 0.008 µg/mL
[20]
  MIC: 0.016 µg/mL
[21]
  MIC: 0.016 µg/mL
[22]
  MIC: 0.031 µg/mL
[23]
  MIC: 0.031 µg/mL
[24]
  MIC: 0.016 µg/mL
[25]
  MIC: 0.031 µg/mL
[26]
  fractional inhibitory concentration index (FICI): 0.047
[27]
  fractional inhibitory concentration index (FICI): 0.07
[28]
  fractional inhibitory concentration index (FICI): 0.039
[29]
  fractional inhibitory concentration index (FICI): 0.078
[30]
  fractional inhibitory concentration index (FICI): 0.133
[31]
  fractional inhibitory concentration index (FICI): 0.039
[32]
  inhibition at 4 µg/mL: 7.44%
[33]
  inhibition at 16 µg/mL: 29.8%
[34]
  inhibition at 0.5 µg/mL: 48.7%
[35]
  Survival: 20%
[36]
  C0: 2460 ng/mL
[37]
  clearance: 30.4 mL/min/kg
[38]
  MRT last: 2.05 h
[39]
  Vd: 4.75 L/kg
[40]
  half-life: 1 h
[41]
  INH: > 50 µM
